In publication PMC6546852, “Carbonyl Reduction of Flubendazole in the Human Liver: Strict Stereospecificity, Sex Difference, Low Risk of Drug Interactions” (Frontiers in Pharmacology, 2019):

How the values were obtained:
human recombinant CBR1 = molecular target: T1, human recombinant CBR1 (Homo sapiens, UniProt P16152); assay: Specific activity of human recombinant CBR1 toward substrates (NADPH consumption at 340 nm); format: biochemical; conditions: 10 µM substrate
T1 construct: purchased MyBioSource (San Diego, CA, USA)
T1 sequence (P16152 1-277): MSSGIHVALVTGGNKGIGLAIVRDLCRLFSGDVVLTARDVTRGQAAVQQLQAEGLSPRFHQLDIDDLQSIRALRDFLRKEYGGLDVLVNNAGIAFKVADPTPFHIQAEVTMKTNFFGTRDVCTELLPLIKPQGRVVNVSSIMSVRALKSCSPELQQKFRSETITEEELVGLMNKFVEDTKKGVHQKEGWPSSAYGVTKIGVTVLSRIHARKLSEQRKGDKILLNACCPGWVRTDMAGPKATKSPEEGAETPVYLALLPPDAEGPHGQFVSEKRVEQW
Protocol: The human recombinant CBR1 activity was assayed using a slight modification of previously published method (Mate et al., [2008]). The assay was performed in four replicates and was repeated three times. […] The activity of CBR1 was assessed using 10-μM concentration of the substrates, MEN, DOX, and FLU. The consumption of NADPH in the reaction mixture, which served for the assessment of the reductase activity, was determined spectrophotometrically at 340 nm at 37°C using the microplate reader Tecan Infinite M200.

[1] = test system: doxorubicin reduction in pooled human liver cytosol; assay: Flubendazole effect on doxorubicin reduction (doxorubicinol formation) in pooled human liver cytosol; format: biochemical; conditions: for Doxorubicinol—cytosol (percent of the residual activity): 20 µM doxorubicin, NADPH
[2] = Water solubility of flubendazole; format: physicochemical; conditions: allowed only 10 µM as highest concentration in incubation mixtures
P-glycoprotein = test system: P-glycoprotein; set-up: method as in earlier work; conditions: ref Spagnuolo et al., 2010, Kralova et al., 2013, Michaelis et al., 2015, 2016; cited from earlier work
[3] = Kinetics of flubendazole reduction ((+)-FLUR formation) in pooled human liver cytosol; format: in vitro ADME; conditions: for Clint (intrinsic clearance, V′max/K′m) / K’m (apparent Michaelis constant) / V’max (apparent maximal velocity of (+)-FLUR formation): pooled cytosol; for V’max (apparent maximal velocity of (+)-FLUR formation): 0-10 µM FLU
[4] = test system: doxorubicin reduction in cytosol of cancer cells SW480; assay: Flubendazole effect on doxorubicin reduction (doxorubicinol formation) in cytosol of cancer cells SW480; format: biochemical, human; conditions: for Doxorubicinol—SW480 (percent of the residual activity): 20 µM doxorubicin, NADPH
[5] = Reduction of flubendazole in pooled human liver cytosol (chiral HPLC of FLUR enantiomers); format: in vitro ADME; conditions: human liver subcellular fractions
Protocol: Frozen pieces of liver were thawed at room temperature for up to 15 min and individual livers were homogenized in a 0.1 M sodium phosphate buffer, pH 7.4 at the ratio of 1:6 (v/v), using a Potter-Elvehjem homogenizer and sonication with Sonopolus (Bandelin, Germany). The suspension of the SW480 cells was homogenized using sonication only. The subcellular fractions were isolated by differential centrifugation of the homogenates (Gillette, [1971]) and stored at −80°C. Protein concentrations were assayed using the bicinchoninic acid (BCA) assay according to the manufacturer’s instructions (Sigma-Aldrich).
The cytosolic or microsomal fraction was incubated with FLU (10 μM). […]
Details concerning the HPLC analyses including validations were described in Nobilis et al. ([2008]). A chiral HPLC analysis was employed for the determination of reduced FLU (FLUR) enantiomers—(+)-FLUR and (−)-FLUR; concentrations of FLU, (+)-FLUR, and (−)-FLUR in the samples were determined using an internal standard method (I.S., albendazole). […] A tandem of an UV photodiode-array and a fluorescence detector was used for the determination of the abovementioned benzimidazole compounds.

[6] = molecular target: T2, carbonyl reductase 1 (CBR1) (Homo sapiens, UniProt P16152); assay: Inhibition of flubendazole reduction in pooled human liver cytosol by CBR1 inhibitors; format: biochemical; conditions: 10 µM FLU, NADPH, inhibitor 0-50 µM
T2 sequence (P16152 2-277 limits assumed): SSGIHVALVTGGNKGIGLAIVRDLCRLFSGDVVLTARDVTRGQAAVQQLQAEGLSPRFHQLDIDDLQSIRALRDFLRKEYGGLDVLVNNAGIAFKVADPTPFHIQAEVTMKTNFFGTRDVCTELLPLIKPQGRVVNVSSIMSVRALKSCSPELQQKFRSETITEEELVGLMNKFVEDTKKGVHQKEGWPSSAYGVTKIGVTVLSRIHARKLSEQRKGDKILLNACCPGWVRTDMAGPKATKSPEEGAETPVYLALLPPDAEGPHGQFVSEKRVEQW

Compound	Specific activity of human recombinant CBR1 toward the substrate (in words) (human recombinant CBR1)	Doxorubicinol—cytosol (percent of the residual activity) ([1]; 2 µM flubendazole) [%]	Doxorubicinol—cytosol (percent of the residual activity) ([1]; 10 µM flubendazole) [%]	Inhibition of DOX reduction (in words) ([1]; human liver cytosol, FLU 2 and 10 µM)	Water solubility (in words) [2]	P-glycoprotein substrate (in words) (P-glycoprotein)	Clint (intrinsic clearance, V′max/K′m) ([3]; NADH coenzyme) [min⁻¹]	K’m (apparent Michaelis constant) ([3]; NADH coenzyme) [µM]	V’max (apparent maximal velocity of (+)-FLUR formation) ([3]; NADH coenzyme) [nM/min]	Clint (intrinsic clearance, V′max/K′m) ([3]; NADPH coenzyme) [min⁻¹]	K’m (apparent Michaelis constant) ([3]; NADPH coenzyme) [µM]	V’max (apparent maximal velocity of (+)-FLUR formation) ([3]; NADPH coenzyme) [nM/min]	Hepatic intrinsic clearance (in words) ([3]; pooled human liver cytosol)	Doxorubicinol—SW480 (percent of the residual activity) ([4]; 2 µM flubendazole) [%]	Doxorubicinol—SW480 (percent of the residual activity) ([4]; 10 µM flubendazole) [%]	Inhibition of DOX reduction (in words) ([4]; SW480 cytosol, FLU 2 and 10 µM)	Stereospecificity of carbonyl reduction (in words) [5]	IC50 [6] [µM]
COC(=O)Nc1nc2cc(C(=O)c3ccc(F)cc3)ccc2[nH]1 [flubendazole, [5-(4-fluorobenzoyl)-1H-benzimidazol-2-yl]-carbamic acid methyl ester]	significantly lower than to MEN	98.0 ± 3.4	91.4 ± 4.9	did not inhibit	poor	not a substrate for P-glycoprotein	0.000012	13.34 ± 3.07	0.161 ± 0.024	0.000023	19.91 ± 2.49	0.466 ± 0.043	very low	97.6 ± 3.4	96.7 ± 2.7	did not inhibit	strictly stereospecific	
O=c1cc(-c2ccc(O)c(O)c2)oc2cc(O)cc(O)c12 [LUT, luteolin]																		8.21 ± 3.71
CC1=CC(=O)c2ccccc2C1=O [MEN, menadione]	highest																	0.34 ± 0.26
